Target: delta opioid receptor (DOR), murine, wild-type (Mus musculus, UniProt P32300)
Experiment: [3H]naltrindole radioligand binding
Conditions: labelled compound; HEK293 DOR clone; no affinity constant printed

delta opioid receptor (DOR), murine, wild-type, sequence (P32300 whole entry): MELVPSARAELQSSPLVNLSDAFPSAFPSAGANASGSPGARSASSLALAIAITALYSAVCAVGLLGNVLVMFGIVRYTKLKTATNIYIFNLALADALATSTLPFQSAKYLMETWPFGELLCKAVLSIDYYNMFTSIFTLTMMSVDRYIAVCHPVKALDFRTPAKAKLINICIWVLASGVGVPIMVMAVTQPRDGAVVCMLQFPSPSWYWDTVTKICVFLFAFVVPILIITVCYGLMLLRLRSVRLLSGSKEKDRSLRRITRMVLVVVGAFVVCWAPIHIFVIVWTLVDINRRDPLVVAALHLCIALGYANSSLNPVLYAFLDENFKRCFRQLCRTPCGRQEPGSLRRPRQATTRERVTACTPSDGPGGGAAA

Oc1ccc2c3c1O[C@H]1c4[nH]c5ccccc5c4C[C@@]4(O)[C@@H](C2)N(CC2CC2)CC[C@]314 [[3H]naltrindole]
[3H]naltrindole radioligand binding: Receptor expression levels in DOR clones was assessed by means of [^3H]Naltrindole binding
